Experimental data published in BindingDB's records for doi:10.1021/jm9904102 (Abbott Laboratories, 2000).
pIC50: −log10 of the molar value.

target: T1, Polyunsaturated fatty acid 5-lipoxygenase (Homo sapiens, UniProt P09917); test: Inhibition of calcium ionophore (A-23187)-stimulated LTB4 formation in human neutrophil assay
T1 sequence (P09917 whole entry): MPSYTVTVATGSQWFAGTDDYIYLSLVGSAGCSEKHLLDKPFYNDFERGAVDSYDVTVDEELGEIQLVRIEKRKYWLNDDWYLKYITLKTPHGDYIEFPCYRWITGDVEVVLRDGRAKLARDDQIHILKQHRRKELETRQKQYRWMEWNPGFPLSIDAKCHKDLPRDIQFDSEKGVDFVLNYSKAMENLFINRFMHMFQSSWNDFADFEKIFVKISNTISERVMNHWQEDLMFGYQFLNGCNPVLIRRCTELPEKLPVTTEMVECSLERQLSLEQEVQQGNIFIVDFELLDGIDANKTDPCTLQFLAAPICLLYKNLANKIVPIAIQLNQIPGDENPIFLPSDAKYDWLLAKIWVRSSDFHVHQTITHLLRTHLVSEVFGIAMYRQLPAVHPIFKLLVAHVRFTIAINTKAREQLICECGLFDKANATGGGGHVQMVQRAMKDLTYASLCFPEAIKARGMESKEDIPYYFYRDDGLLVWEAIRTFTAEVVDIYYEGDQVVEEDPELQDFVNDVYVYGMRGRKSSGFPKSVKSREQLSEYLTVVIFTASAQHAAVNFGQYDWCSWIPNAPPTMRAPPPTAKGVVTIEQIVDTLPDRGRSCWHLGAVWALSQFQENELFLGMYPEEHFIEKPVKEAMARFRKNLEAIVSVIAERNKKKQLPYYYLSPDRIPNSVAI

Row | Structure (SMILES) | pIC50
1 | C/C(=N\OC(c1ccc(OCc2ccc3ccccc3n2)cc1)C1CCCCC1)C(=O)O (stereo unspecified) [S-E-2-{Cyclohexyl-[4-(quinolin-2-ylmethoxy)-phenyl]-methoxyimino}-propionic acid] | 7.82

target: not listed separately; test: Inhibition of calcium ionophore (A-23187)-stimulated LTB4 formation in human neutrophil assay

Row | Structure (SMILES) | pIC50
2 | O=C(O)/C=N/OC(c1ccc(OCc2csc(-c3ccc(Cl)cc3)n2)cc1)C1CCCCC1 (stereo unspecified) [({4-[2-(4-Chloro-phenyl)-thiazol-4-ylmethoxy]-phenyl}-cyclohexyl-methoxyimino)-acetic acid] | 6.31
3 | O=C(O)/C(=N\OC(c1ccc(OCc2ccc3ccccc3n2)cc1)C1CCCCC1)c1cccs1 (stereo unspecified) | 7.64
4 | C/C(=N\OC(c1ccc(OCc2ccc3ccccc3n2)cc1)C1CCCC1)C(=O)O (stereo unspecified) [2-{Cyclopentyl-[4-(quinolin-2-ylmethoxy)-phenyl]-methoxyimino}-propionic acid] | 7.80
5 | C/C(=N\O[C@H](c1ccc(OCc2ccc3ccccc3n2)cc1)C1CCCCC1)C(=O)O [listing 1 of 2 here] | 7.47
6 | O=C(O)/C=N/OC(c1ccc(-c2ccc3ccccc3n2)cc1)C1CCCCC1 (stereo unspecified) [[Cyclohexyl-(4-quinolin-2-yl-phenyl)-methoxyimino]-acetic acid(0.25H2O)] | 5.92
7 | CC(C)(C)SC/C(=N\OC(c1ccc(OCc2ccc3ccccc3n2)cc1)C1CCCCC1)C(=O)O (stereo unspecified) [3-tert-Butylsulfanyl-2-{cyclohexyl-[4-(quinolin-2-ylmethoxy)-phenyl]-methoxyimino}-propionic acid] | 6.92
8 | C/C(=N\O[C@H](c1ccc(OCc2ccc3ccccc3n2)cc1)C1CCCCC1)C(=O)O [listing 2 of 2 here] | 8.10
9 | C/C(=N\OC(c1cc2ccc(OCc3ccc4ccccc4n3)cc2s1)C1CCCCC1)C(=O)O (stereo unspecified) [2-{Cyclohexyl-[6-(quinolin-2-ylmethoxy)-benzo[b]thiophen-2-yl]-methoxyimino}-propionic acid] | 7.40
10 | C/C(CCCC(=O)O)=N\OC(c1ccc(OCc2ccc3ccccc3n2)cc1)C1CCCCC1 (stereo unspecified) [5-{Cyclohexyl-[4-(quinolin-2-ylmethoxy)-phenyl]-methoxyimino}-hexanoic acid] | 7.23
11 | C/C(=N\OC(c1ccc(OCc2nc3ccccc3s2)cc1)C1CCCCC1)C(=O)O (stereo unspecified) [2-{[4-(Benzothiazol-2-ylmethoxy)-phenyl]-cyclohexyl-methoxyimino}-propionic acid (0.5H2O)] | 7.22
12 | C/C(=N\OCC(c1ccc(OCc2ccc3ccccc3n2)cc1)C1CCCCC1)C(=O)O (stereo unspecified) [2-{2-Cyclohexyl-2-[4-(quinolin-2-ylmethoxy)-phenyl]-ethoxyimino}-propionic acid] | 7.70
13 | CC(C)(CC(O/N=C/C(=O)O)c1ccc(OCc2ccc3ccccc3n2)cc1)c1ccccc1 (stereo unspecified) [{3-Methyl-3-phenyl-1-[4-(quinolin-2-ylmethoxy)-phenyl]-butoxyimino}-acetic acid] | 8.00
14 | C/C(=N\OC(c1ccc(OCc2cscn2)cc1)C1CCCCC1)C(=O)O (stereo unspecified) [2-{Cyclohexyl-[4-(thiazol-4-ylmethoxy)-phenyl]-methoxyimino}-propionic acid (0.25H2O)] | 6.44
15 | O=C(O)/C=N/OC(c1ccc(OCc2ccc3ccccc3n2)cc1)C1CCCCCC1 (stereo unspecified) [{Cycloheptyl-[4-(quinolin-2-ylmethoxy)-phenyl]-methoxyimino}-acetic acid] | 7.74
16 | C/C(=N\OC(c1ccc(OCc2ccc3ccccc3n2)cc1)C1C2CC3CC(C2)CC1C3)C(=O)O (stereo unspecified) [2-{Adamantan-2-yl-[4-(quinolin-2-ylmethoxy)-phenyl]-methoxyimino}-propionic acid] | 7.70
17 | Cc1nc(COc2ccc(C(O/N=C/C(=O)O)C3CCCCC3)cc2)cs1 (stereo unspecified) [{Cyclohexyl-[4-(2-methyl-thiazol-4-ylmethoxy)-phenyl]-methoxyimino}-acetic acid] | 6.42
18 | CCCCC(CCCC)C(O/N=C(\C)C(=O)O)c1ccc(OCc2ccc3ccccc3n2)cc1 (stereo unspecified) [2-{2-Butyl-1-[4-(quinolin-2-ylmethoxy)-phenyl]-hexyloxyimino}-propionic acid (2H2O)] | 7.85
19 | C/C(=N\OC(c1cc(OCc2ccc3ccccc3n2)on1)C1CCCCC1)C(=O)O (stereo unspecified) [2-{Cyclohexyl-[5-(quinolin-2-ylmethoxy)-isoxazol-3-yl]-methoxyimino}-propionic acid] | 6.31
20 | O=C(O)/C(=N/OC(c1ccc(OCc2ccc3ccccc3n2)cc1)C1CCCCC1)c1cccs1 (stereo unspecified) [(E)-{Cyclohexyl-[4-(quinolin-2-ylmethoxy)-phenyl]-methoxyimino}-thiophen-2-yl-acetic acid (2.5H2O)] | 7.68
21 | C/C(=N\OC(Cc1ccccc1)c1ccc(OCc2ccc3ccccc3n2)cc1)C(=O)O (stereo unspecified) [2-{2-Phenyl-1-[4-(quinolin-2-ylmethoxy)-phenyl]-ethoxyimino}-propionic acid (0.25H2O)] | 7.52
22 | C/C(=N\OC(c1ccc(OCc2nc3cc(F)ccc3s2)cc1Cl)C1CCCCC1)C(=O)O (stereo unspecified) [2-{[2-Chloro-4-(5-fluoro-benzothiazol-2-ylmethoxy)-phenyl]-cyclohexyl-methoxyimino}-propionic acid] | 7.32
23 | O=C(O)/C=N/OC(c1ccc(OCc2ccc3ccccc3n2)cc1)C1C2CC3CC(C2)CC1C3 (stereo unspecified) [{Adamantan-2-yl-[4-(quinolin-2-ylmethoxy)-phenyl]-methoxyimino}-acetic acid] | 7.68
24 | C/C(CCC(=O)O)=N\OC(c1ccc(OCc2ccc3ccccc3n2)cc1)C1CCCCC1 (stereo unspecified) [(Z)-4-{Cyclohexyl-[4-(quinolin-2-ylmethoxy)-phenyl]-methoxyimino}-pentanoic acid] | 7.77
25 | C/C(=N\OC(c1ccc(OCc2ccc3cc(F)ccc3n2)cc1)C1CCCCC1)C(=O)O (stereo unspecified) [2-{Cyclohexyl-[4-(6-fluoro-quinolin-2-ylmethoxy)-phenyl]-methoxyimino}-propionic acid] | 7.70
26 | O=C(O)/C=N/OCC(c1ccc(OCc2ccc3ccccc3n2)cc1)C1CCCCC1 (stereo unspecified) [{2-Cyclohexyl-2-[4-(quinolin-2-ylmethoxy)-phenyl]-ethoxyimino}-acetic acid (0.25H2O)] | 7.33
27 | C/C(=N\OC(c1ccc(OCc2ccc3ccccc3n2)c(C)c1)C1CCCCC1)C(=O)O (stereo unspecified) [2-{Cyclohexyl-[3-methyl-4-(quinolin-2-ylmethoxy)-phenyl]-methoxyimino}-propionic acid (0.1H2O)] | 7.70
28 | O=C(O)/C=N/OC(CC1CCCCC1)c1ccc(OCc2ccc3ccccc3n2)cc1 (stereo unspecified) [{2-Cyclohexyl-1-[4-(quinolin-2-ylmethoxy)-phenyl]-ethoxyimino}-acetic acid] | 7.57
29 | C/C(=N\OC(c1ccc(OCc2nc(-c3ccccc3)cs2)cc1)C1CCCCC1)C(=O)O (stereo unspecified) [2-{Cyclohexyl-[4-(4-phenyl-thiazol-2-ylmethoxy)-phenyl]-methoxyimino}-propionic acid (0.5H2O)] | 7.70
30 | O=C(O)/C=N/OC(c1ccc(OCc2nc3cc(F)ccc3s2)cc1)C1CCCCC1 (stereo unspecified) [{Cyclohexyl-[4-(5-fluoro-benzothiazol-2-ylmethoxy)-phenyl]-methoxyimino}-acetic acid] | 7.06
31 | COc1cc(OCc2ccc3ccccc3n2)ccc1C(O/N=C/C(=O)O)C1CCCCC1 (stereo unspecified) [{Cyclohexyl-[2-methoxy-4-(quinolin-2-ylmethoxy)-phenyl]-methoxyimino}-acetic acid] | 7.70
